# Source: PMC8472965, “BmK86-P1, a New Degradation Peptide with Desirable Thermostability and Kv1.2 Channel-Specific Activity from Traditional Chinese Scorpion Medicinal Material” (Toxins, 2021)
# Positions of bridges follow the written chain, without caps; N, C: chain ends. Residues, ends and D or L forms follow the SMILES beside them.
# Legend:
# [1] = target: T1, hKv1.2-P359S (Homo sapiens, UniProt P16389, P359S); assay: Whole-cell patch clamp, hKv1.2 channel mutant P359S; format: cell-based; conditions: 100 nM peptide, HEK293T, mean ± S.E., n ≥ 3, SEM
# T1 construct: expressed in transfected cells; host or cells: HEK293T
# Description: (§1) To determine the functional sites of the hKv1.2 channel responsible for the selectivity of BmK86-P1, six hKv1.2 mutants were obtained based on sequence differences between the pore regions of the hKv1.2 and hKv1.1 channels (Figure 4A). Then, the activities of 100 nM BmK86-P1 on these six mutant channels were tested. […] The other three mutant channels (hKv1.2-D352E, hKv1.2-R354A and hKv1.2-P359S) still kept similar sensitivities toward BmK86-P1 compared with the wild-type hKv1.2 channel (Figure 4H,I,K,N).
# (§2) All potassium channel expression vectors were given by others or constructed by ourselves. HEK293T cells were cultured in Dulbecco’s modified Eagle medium (Gibco, Pittsburgh, PA, USA) with 10% fetal bovine serum and penicillin/streptomycin (100 units/mL) in a 5% CO2 incubator at 37 °C. Potassium channel expression vectors and pEGFP-N1 were co-transfected into HEK293T cells using TurboFect in vitro Transfection Reagent (Thermo Scientific, Waltham, MA, USA) according to the manufacturer’s instructions. The potassium currents were recorded after transfection for 1 to 3 days.
# (§3) The channel currents were measured and recorded by whole-cell patch clamp technology according to previously published references. […] The channel currents were recorded at room temperature (~25 °C) using an EPC 10 patch clamp amplifier. […]
# [2] = tested on: Kv1.3 channel; conditions: read-out: IC50, inhibition of the current of Kv1.3 channel; cited from earlier work
# Description: The BmK86 toxin gene was first discovered from the venom gland cDNA library of Mesobuthus martensii Karsch. It encodes a signal peptide with 22 amino acid residues and a mature toxin with 35 residues (Figure 6A). The stretch of six amino acids in the N-terminus of BmK86 was thought to be a signal peptide rather than the N-terminal portion of the mature peptide. […] BmK86 could inhibit the c ...
# [3] = target: T2, hKv1.2-M1 chimeric channel (Homo sapiens, UniProt P16389, D352E/P359S/Q357H/R354A/T383V/V381Y); assay: Whole-cell patch clamp, chimeric channel hKv1.2-M1 (S5-S6 linker of hKv1.2 replaced by that of hKv1.1); format: cell-based; conditions: 100 nM peptide, HEK293T, mean ± S.E., n ≥ 3, SEM
# T2 construct: expressed in transfected cells; host or cells: HEK293T
# Description: The binding interface of potassium channels for scorpion toxins is the pore region, which includes the turret and filter regions. We first investigated whether BmK86-P1 peptide binds to the pore region of the hKv1.2 channel.
# as §2
# The channel currents were measured and recorded by whole-cell patch clamp technology according to previously published references. The internal patch pipette solution and the bath solution were prepared as previously described. All the test peptides were dissolved into bath solution supplemented with 0.01% BSA. An MPS-2 multichannel microperfusion system (INBIO Inc., Wuhan, China) was applied to change the external recording bath solution. […] The channel currents were recorded at room temperature (~25 °C) using an EPC 10 patch clamp amplifier. […]
# [4] = target: T3, hKv1.2-T383V (Homo sapiens, UniProt P16389, T383V); assay: Whole-cell patch clamp, hKv1.2 channel mutant T383V; format: cell-based; conditions: 100 nM peptide, HEK293T, mean ± S.E., n ≥ 3, SEM
# T3 construct: expressed in transfected cells; host or cells: HEK293T
# Description: as §1, §2, §3
# [5] = tested on: rKv4.3 channel; assay: Whole-cell patch clamp, rKv4.3 channel overexpressed in HEK293T cells; format: cell-based, rat; conditions: 1 μM peptide, mean ± S.E., n ≥ 3, SEM
# Description: (§4) To investigate the electrophysiological activities of BmK86-P1, the whole-cell patch clamp technique was applied to test the effects of BmK86-P1 on multiple potassium channels. The hKv1.1, hKv1.2, hKv1.3, hKv1.6, hKv3.2, mKv4.1, rKv4.2, rKv4.3 and hERG channels were overexpressed in HEK293T cells, then the inhibitory effects of BmK86-P1 at 1 μM on these potassium channels were measured. […] To further investigate the affinity of BmK86-P1 inhibiting the hKv1.2 channel, a dose-dependent study was performed by examining the inhibitory effects of different concentrations of BmK86-P1.
# (§5) All potassium channel expression vectors were given by others or constructed by ourselves. HEK293T cells were cultured in Dulbecco’s modified Eagle medium (Gibco, Pittsburgh, PA, USA) with 10% fetal bovine serum and penicillin/streptomycin (100 units/mL) in a 5% CO2 incubator at 37 °C. […] The potassium currents were recorded after transfection for 1 to 3 days.
# as §3
# (§6) The ClampFit (Molecular Devices, Sunnyvale, CA, USA) and SigmaPlot software ([…], Chicago, IL, USA) were used to analyze the recorded data. […]
# [6] = target: T4, hKv1.6 channel (Homo sapiens, UniProt P17658); assay: Whole-cell patch clamp, hKv1.6 channel overexpressed in HEK293T cells; format: cell-based; conditions: 1 μM peptide, mean ± S.E., n ≥ 3, SEM
# T4 construct: expressed in transfected cells; host or cells: HEK293T
# Description: as §4, §5, §3, §6
# [7] = target: T5, hKv1.2 channel (Homo sapiens, UniProt P16389); assay: Whole-cell patch clamp, hKv1.2 channel overexpressed in HEK293T cells; format: cell-based; conditions: mean ± S.E., n ≥ 3, SEM
# T5 construct: expressed in transfected cells; host or cells: HEK293T
# Description: as §4, §2
# The channel currents were measured and recorded by whole-cell patch clamp technology according to previously published references. The internal patch pipette solution and the bath solution were prepared as previously described. All the test peptides were dissolved into bath solution supplemented with 0.01% BSA. An MPS-2 multichannel microperfusion system (INBIO Inc., Wuhan, China) was applied to change the external recording bath solution. The infusion time of the peptides should not exceed 20 min to maintain good cell conditions during electrophysiological recordings. The channel currents were recorded at room temperature (~25 °C) using an EPC 10 patch clamp amplifier. The results were presented as the means ± S.E., and in every sample at least three cells (n ≥ 3) were examined.
# as §6
# [8] = target: T6, rKv4.2 channel (Rattus norvegicus, UniProt Q63881); assay: Whole-cell patch clamp, rKv4.2 channel overexpressed in HEK293T cells; format: cell-based; conditions: 1 μM peptide, mean ± S.E., n ≥ 3, SEM
# T6 construct: expressed in transfected cells; host or cells: HEK293T
# T6 sequence (Q63881 1-630): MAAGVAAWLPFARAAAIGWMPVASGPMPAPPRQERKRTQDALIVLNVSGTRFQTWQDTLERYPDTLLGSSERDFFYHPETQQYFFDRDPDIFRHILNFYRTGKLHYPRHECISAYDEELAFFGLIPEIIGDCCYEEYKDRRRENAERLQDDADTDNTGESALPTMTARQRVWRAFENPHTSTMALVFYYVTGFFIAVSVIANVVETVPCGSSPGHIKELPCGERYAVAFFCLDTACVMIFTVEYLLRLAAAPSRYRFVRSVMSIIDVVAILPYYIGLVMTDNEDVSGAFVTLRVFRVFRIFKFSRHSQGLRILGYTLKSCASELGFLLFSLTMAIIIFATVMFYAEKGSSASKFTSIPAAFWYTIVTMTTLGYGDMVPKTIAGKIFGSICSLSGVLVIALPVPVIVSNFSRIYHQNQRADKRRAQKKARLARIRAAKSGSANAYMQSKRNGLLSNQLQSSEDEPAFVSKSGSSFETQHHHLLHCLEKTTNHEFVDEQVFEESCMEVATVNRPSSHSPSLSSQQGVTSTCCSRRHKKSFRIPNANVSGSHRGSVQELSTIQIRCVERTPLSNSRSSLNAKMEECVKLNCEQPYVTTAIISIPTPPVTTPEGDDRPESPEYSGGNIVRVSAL
# Description: as §4, §5, §3, §6
# T5 sequence (P16389 whole entry): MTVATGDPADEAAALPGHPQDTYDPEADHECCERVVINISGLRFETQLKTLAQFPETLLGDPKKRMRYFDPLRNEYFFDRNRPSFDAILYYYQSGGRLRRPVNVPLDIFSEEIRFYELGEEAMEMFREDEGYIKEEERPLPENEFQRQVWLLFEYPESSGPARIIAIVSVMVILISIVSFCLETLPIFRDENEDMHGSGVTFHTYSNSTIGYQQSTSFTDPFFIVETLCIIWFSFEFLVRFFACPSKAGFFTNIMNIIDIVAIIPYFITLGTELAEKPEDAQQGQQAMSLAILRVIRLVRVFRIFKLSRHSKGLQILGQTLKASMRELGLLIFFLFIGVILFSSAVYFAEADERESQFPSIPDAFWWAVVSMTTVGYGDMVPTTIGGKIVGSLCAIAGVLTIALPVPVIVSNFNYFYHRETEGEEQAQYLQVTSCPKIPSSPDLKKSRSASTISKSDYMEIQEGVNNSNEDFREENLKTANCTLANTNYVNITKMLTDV
# T4 sequence (P17658 whole entry): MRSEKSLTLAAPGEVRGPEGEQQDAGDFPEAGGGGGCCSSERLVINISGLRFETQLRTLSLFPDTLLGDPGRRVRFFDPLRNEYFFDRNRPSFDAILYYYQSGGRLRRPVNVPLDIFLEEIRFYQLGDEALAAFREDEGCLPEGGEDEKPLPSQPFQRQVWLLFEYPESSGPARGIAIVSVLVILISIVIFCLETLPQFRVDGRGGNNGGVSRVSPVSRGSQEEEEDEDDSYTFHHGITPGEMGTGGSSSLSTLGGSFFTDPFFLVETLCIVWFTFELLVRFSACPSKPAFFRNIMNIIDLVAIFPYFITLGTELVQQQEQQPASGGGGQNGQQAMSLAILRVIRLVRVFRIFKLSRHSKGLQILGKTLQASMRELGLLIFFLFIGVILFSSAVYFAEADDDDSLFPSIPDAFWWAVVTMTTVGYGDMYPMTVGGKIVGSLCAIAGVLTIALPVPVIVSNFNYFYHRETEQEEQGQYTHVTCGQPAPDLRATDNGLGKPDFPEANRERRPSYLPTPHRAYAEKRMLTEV
# T3 sequence (P16389 whole entry T383V): as the sequence (P16389 whole entry) above, with T383V counted along it
# T2 sequence (P16389 whole entry D352E/R354A/Q357H/P359S/V381Y/T383V): as the sequence (P16389 whole entry) above, with D352E, R354A, Q357H, P359S, V381Y, T383V counted along it
# T1 sequence (P16389 whole entry P359S): as the sequence (P16389 whole entry) above, with P359S counted along it
structure (smiles),measurement,setting,value
"CC[C@H](C)[C@@H]1NC(=O)[C@@H]2CSSC[C@H](NC(=O)[C@H](C)N)C(=O)N[C@@H](CO)C(=O)N[C@@H](CCCCN)C(=O)N3CCC[C@H]3C(=O)N[C@H]3CSSC[C@H](NC(=O)[C@H](CCCNC(=N)N)NC(=O)CNC(=O)[C@H](CC(N)=O)NC1=O)C(=O)N[C@@H](Cc1c[nH]cn1)C(=O)N[C@H](C(=O)N[C@@H](Cc1ccc(O)cc1)C(=O)N[C@@H](Cc1ccc(O)cc1)C(=O)O)CSSC[C@H](NC(=O)[C@H](Cc1ccc(O)cc1)NC(=O)[C@H](CCCCN)NC(=O)[C@H](CCCNC(=N)N)NC3=O)C(=O)N[C@@H]([C@@H](C)CC)C(=O)N[C@@H](CC(=O)O)C(=O)N[C@@H](CCCCN)C(=O)NCC(=O)N[C@@H](C)C(=O)N[C@@H](CCCNC(=N)N)C(=O)N[C@@H](CC(N)=O)C(=O)NCC(=O)N[C@@H](CCCCN)C(=O)N2 [BmK86-P1] (H-ACSKPCRKYCIDKGARNGKCINGRCHCYY-OH; disulfide 2-20, 6-25, 10-27 (inferred); N-terminus and C-terminus assumed)",inhibition of hKv1.2-P359S channel currents,[1],72.4 ± 5.5%
same,IC50,[2],597 ± 114 nM
same,inhibition of hKv1.2-M1 chimeric channel currents,[3],1.0 ± 0.2%
same,inhibition of hKv1.2-T383V channel currents,[4],32.1 ± 2.8%
same,inhibition of Kv4.3 channel currents,[5],4.9 ± 0.3%
same,inhibition of hKv1.6 channel currents,[6],11.0 ± 1.2%
same,inhibition of hKv1.2 channel currents,[7]; 100 nM peptide,74.1 ± 3.2%
same,inhibition of hKv1.2 channel currents,"[7]; 1 μM peptide, room temperature (~25 °C)",88.6 ± 2.2%
same,IC50,"[7]; dose-response curve fitted with Hill equation, read-out: IC50, inhibition of the hKv1.2 channel",28.5 ± 6.3 nM
same,inhibition of rKv4.2 channel currents,[8],11.0 ± 1.8%
